Data on 4 compounds can be found in patent US12252524B2, “GIP/GLP1 co-agonist compounds” (Eli Lilly and Company, priority 2018, dated 2025).

Numbered stars: 1 amine (or outer) side, 2 acyl side, 3 side chain; on linkers, the order of the positions; unused ones are H or OH. Square brackets hold non-standard residues; d marks the D form. Side chains are listed from the residue outwards. Peptide text beside a SMILES is read from it. * marks the point of attachment. C20 diacid = O=C(O)CCCCCCCCCCCCCCCCCCC(=O)*; γGlu = O=C(O)[C@H](CCC(=O)[*:2])N[*:1]; αMeL = CC(C)C[C@](C)(N)C(=O)O; Orn = NCCC[C@H](N)C(=O)O; AEEA = NCCOCCOCC(=O)O; Aib = CC(C)(N)C(=O)O

Assay [1] has as its target human GLP-1 receptor (GLP-1R) (Homo sapiens, UniProt P43220). The assay is described as follows: cAMP pharmacological functional assay in presence of casein, hGLP-1R. It counts as cell-based. To be noted: HEK293 cells expressing hGLP-1R, 0.1% Casein, geometric mean; read-out: hGLP1R cAMP Rel EC50 nM (SEM, n).
The target in assay [2] is T1, human GLP-1R (Homo sapiens, UniProt P43220). The assay is described as follows: GLP-1R HEK293 cell membrane [35S]GTPγS binding assay. It counts as biochemical. Also on record: expressed in transfected cells; host or cells: HEK293 cells expressing human GLP-1R; membranes. The following applies: HEK293 cell membranes expressing human GLP-1R, [35S]GTPγS binding; read-out: hGLP1R GTPgS Rel EC50 nM (SEM, n). Summed up:
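Membranes from HEK293 cells expressing the receptor incubated with peptide and […] [35S]GTPγS in HEPES pH 7.4 buffer with NaCl, MgCl2, saponin and BSA, 30 min at room temperature. Gαs-bound label captured by anti-Gαs antibody/SPA beads and counted; EC50 from four-parameter logistic fit.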

Assay [3] addresses T2, gastric inhibitory peptide receptor (GIPR) (Homo sapiens, UniProt P48546).
T2 sequence (P48546 22-466): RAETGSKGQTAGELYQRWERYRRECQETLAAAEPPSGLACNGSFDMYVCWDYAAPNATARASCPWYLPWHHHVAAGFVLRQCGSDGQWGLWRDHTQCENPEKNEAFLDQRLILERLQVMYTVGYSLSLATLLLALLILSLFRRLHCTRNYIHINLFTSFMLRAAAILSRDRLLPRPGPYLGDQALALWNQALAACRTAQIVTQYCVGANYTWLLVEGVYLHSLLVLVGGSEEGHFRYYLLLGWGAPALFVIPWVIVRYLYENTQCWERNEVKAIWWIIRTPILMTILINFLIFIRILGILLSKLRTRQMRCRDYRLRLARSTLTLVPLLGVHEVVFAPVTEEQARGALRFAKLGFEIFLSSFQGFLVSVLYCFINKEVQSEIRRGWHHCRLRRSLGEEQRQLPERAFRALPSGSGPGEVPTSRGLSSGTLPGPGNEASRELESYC
The assay is described as follows: cAMP pharmacological functional assay in presence of casein, hGIPR. The class given is cell-based. The following applies: HEK293 cells expressing hGIPR, 0.1% Casein, geometric mean; read-out: hGIPR cAMP Rel EC50 nM (SEM, n).

The next assay has as its target T3, human GIP receptor (Homo sapiens, UniProt P48546).
T3 construct: expressed in transfected cells; crude membranes
T3 sequence (P48546 22-466): T2 sequence (P48546 22-466)
Briefly: [125I]-GIP binding (SPA), human GIP receptor. To be noted: read-out: hGIPR Ki, nM (SEM, n).

Assay [4] deals with T1, human GLP-1R. The assay is described as follows: [125I]-GLP-1 binding (SPA), human GLP-1 receptor. Also on record: expressed in transfected cells; crude membranes. The following applies: read-out: hGLP1R Ki, (nM) (SEM, n). The gist of the method: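 Frozen cell pellets are lysed on ice in hypotonic Tris buffer, pH 7.5, homogenized, and centrifuged to a membrane pellet resuspended at about 1 to 3 mg/mL. Binding is then measured in HEPES-based buffer at pH 7.4, and curves are fitted to give IC50 and Ki.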

The target of assay [5] is T1, human GLP-1R. The assay is described as follows: GLP-1R CHO cell β-arrestin recruitment assay. It counts as cell-based. Also on record: host or cells: CHO-K1 PathHunter cells, assay-ready frozen. The following applies: for EC50: CHO-K1 cells, PathHunter β-arrestin-2 recruitment, 0.1% casein, read-out: hGLP1R B-Arrestin2 Rel EC50 uM (SEM, n); for hGLP1R B-Arrestin2 % Top: normalized to GLP-1 maximum control. Summed up: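 PathHunter CHO-K1 cells with ProLink-tagged human GLP-1R and enzyme-acceptor-tagged β-arrestin-2 treated with serially diluted peptides in assay buffer containing 0.1% hydrolyzed casein, 90 min at 37 °C.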
In general terms: Activated receptors often draw arrestin, which recruitment assays turn into a signal.

In a further assay the target is T4, human Gcg receptor (Homo sapiens, UniProt P47871).
T4 construct: expressed in transfected cells; crude membranes
T4 sequence (P47871 26-477): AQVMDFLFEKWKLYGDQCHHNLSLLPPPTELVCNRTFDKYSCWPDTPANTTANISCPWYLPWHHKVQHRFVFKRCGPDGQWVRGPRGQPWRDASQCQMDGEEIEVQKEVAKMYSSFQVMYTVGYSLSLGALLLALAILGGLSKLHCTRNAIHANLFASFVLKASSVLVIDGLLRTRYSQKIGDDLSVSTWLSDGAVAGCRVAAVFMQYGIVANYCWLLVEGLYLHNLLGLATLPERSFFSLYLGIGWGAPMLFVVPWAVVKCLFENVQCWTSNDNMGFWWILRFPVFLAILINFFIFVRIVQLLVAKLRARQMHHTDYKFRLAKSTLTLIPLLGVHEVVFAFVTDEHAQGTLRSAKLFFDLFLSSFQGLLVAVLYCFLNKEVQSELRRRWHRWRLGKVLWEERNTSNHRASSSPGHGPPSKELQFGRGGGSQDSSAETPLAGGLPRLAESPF
Briefly: [125I]-Glucagon binding (SPA), human Gcg receptor. The following applies: read-out: hGLcgR Ki, nM (SEM, n). Summed up:
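Scintillation counts are taken after membranes and WGA beads incubate and settle for 12 hours at room temperature. Buffer is 25 mM HEPES, pH 7.4, with CaCl2, MgCl2, bacitracin and Tween-20. Ki values, from four-parameter IC50 fits, are geometric means over independent days.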

Chain of human GLP-1 receptor (GLP-1R) (P43220 24-463): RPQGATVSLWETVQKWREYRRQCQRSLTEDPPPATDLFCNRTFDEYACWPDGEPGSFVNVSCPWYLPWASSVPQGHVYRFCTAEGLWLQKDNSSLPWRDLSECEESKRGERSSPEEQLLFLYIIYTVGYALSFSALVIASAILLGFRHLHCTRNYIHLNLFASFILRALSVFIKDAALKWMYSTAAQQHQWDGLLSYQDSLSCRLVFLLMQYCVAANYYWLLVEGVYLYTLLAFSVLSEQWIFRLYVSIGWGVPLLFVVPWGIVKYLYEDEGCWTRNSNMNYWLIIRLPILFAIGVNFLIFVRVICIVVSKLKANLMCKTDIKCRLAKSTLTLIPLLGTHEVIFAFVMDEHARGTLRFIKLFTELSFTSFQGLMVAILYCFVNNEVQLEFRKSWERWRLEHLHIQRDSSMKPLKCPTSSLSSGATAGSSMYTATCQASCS
T1 sequence (P43220 24-463): as above

As for `CC[C@H](C)[C@H](NC(=O)[C@H](CC(C)C)NC(=O)[C@H](Cc1ccc(O)cc1)NC(=O)[C@@H](CCC(=O)O)NC(=O)[C@@H](NC(=O)[C@H](Cc1ccccc1)NC(=O)[C@H](C)NC(=O)C(C)(C)NC(=O)[C@H](CCC(N)=O)NC(=O)[C@H](C)NC(=O)[C@H](CCCCNC(=O)COCCOCCNC(=O)COCCOCCNC(=O)CC[C@H](NC(=O)CCCCCCCCCCCCCCCCCCC(=O)O)C(=O)O)NC(=O)[C@H](CCCCN)NC(=O)[C@H](CC(=O)O)NC(=O)[C@H](CC(C)C)NC(=O)[C@](C)(CC(C)C)NC(=O)[C@@H](NC(=O)[C@H](CO)NC(=O)[C@H](Cc1ccc(O)cc1)NC(=O)[C@H](CC(=O)O)NC(=O)[C@H](CO)NC(=O)[C@@H](NC(=O)[C@H](Cc1ccccc1)NC(=O)[C@@H](NC(=O)CNC(=O)[C@H](CCC(=O)O)NC(=O)C(C)(C)NC(=O)[C@H](N)Cc1ccc(O)cc1)[C@@H](C)O)[C@@H](C)O)[C@@H](C)CC)[C@@H](C)CC)C(=O)N[C@@H](C)C(=O)NCC(=O)NCC(=O)N1CCC[C@H]1C(=O)N[C@@H](CO)C(=O)N[C@@H](CO)C(=O)NCC(=O)N[C@@H](C)C(=O)N1CCC[C@H]1C(=O)N1CCC[C@H]1C(=O)N1CCC[C@H]1C(=O)N[C@@H](CO)C(N)=O` [Example 352] (H-[dY][Aib]EGTFTSDYSI[αMeL]LDKK([AEEA-AEEA-γGlu-C20 diacid])AQ[Aib]AFI[dE]YLIAGGPSSGAPPPS-NH2), the EC50 came to 0.142 nM in assay [1], 0.552 nM on human GLP-1R [2], 0.127 nM in assay [3] and 0.00421 µM on human GLP-1R [5]. For the same compound, the figures for the Ki on human GIP receptor, at human GLP-1R [4] and on human Gcg receptor were 0.0726 nM, 3.03 nM and greater than 1030 nM, respectively. For the same compound, the “hGLP1R B-Arrestin2 % Top” value on human GLP-1R [5] is reported as 17.4%.
As to `CC[C@H](C)[C@H](NC(=O)[C@H](CC(C)C)NC(=O)[C@H](Cc1ccc(O)cc1)NC(=O)[C@@H](CCC(=O)O)NC(=O)[C@@H](NC(=O)[C@H](Cc1ccccc1)NC(=O)[C@H](CCC(=O)O)NC(=O)C(C)(C)NC(=O)[C@H](CCC(N)=O)NC(=O)[C@H](C)NC(=O)[C@H](CCCCNC(=O)COCCOCCNC(=O)COCCOCCNC(=O)CC[C@H](NC(=O)CCCCCCCCCCCCCCCCCCC(=O)O)C(=O)O)NC(=O)[C@H](CCCN)NC(=O)[C@H](CC(=O)O)NC(=O)[C@H](CC(C)C)NC(=O)[C@](C)(CC(C)C)NC(=O)[C@@H](NC(=O)[C@H](CO)NC(=O)[C@H](Cc1ccc(O)cc1)NC(=O)[C@H](CC(=O)O)NC(=O)[C@H](CO)NC(=O)[C@@H](NC(=O)[C@H](Cc1ccccc1)NC(=O)[C@@H](NC(=O)CNC(=O)[C@H](CCC(=O)O)NC(=O)C(C)(C)NC(=O)[C@H](N)Cc1ccc(O)cc1)[C@@H](C)O)[C@@H](C)O)[C@@H](C)CC)[C@@H](C)CC)C(=O)N[C@@H](C)C(=O)NCC(=O)NCC(=O)N1CCC[C@H]1C(=O)N[C@@H](CO)C(=O)N[C@@H](CO)C(=O)NCC(=O)N[C@@H](C)C(=O)N1CCC[C@H]1C(=O)N1CCC[C@H]1C(=O)N1CCC[C@H]1C(=O)N[C@@H](CO)C(N)=O` [Example 354] (H-[dY][Aib]EGTFTSDYSI[αMeL]LD[Orn]K([AEEA-AEEA-γGlu-C20 diacid])AQ[Aib]EFI[dE]YLIAGGPSSGAPPPS-NH2; N-terminus assumed), the EC50 was determined as 0.54 nM in assay [1], 0.967 nM at human GLP-1R [2], 0.233 nM in assay [3] and 0.255 µM at human GLP-1R [5]. Further, the values for the Ki on human GIP receptor, at human GLP-1R [4] and at human Gcg receptor were 0.175 nM, 7.85 nM and greater than 953 nM, respectively. For the same compound, the “hGLP1R B-Arrestin2 % Top” value at human GLP-1R [5] is reported as 22.7%.
As for `CC[C@H](C)[C@H](NC(=O)[C@H](CC(C)C)NC(=O)[C@H](Cc1ccc(O)cc1)NC(=O)[C@H](CCC(=O)O)NC(=O)[C@@H](NC(=O)[C@H](Cc1ccccc1)NC(=O)[C@H](C)NC(=O)C(C)(C)NC(=O)[C@H](CCC(N)=O)NC(=O)[C@H](C)NC(=O)[C@H](CCCCNC(=O)COCCOCCNC(=O)COCCOCCNC(=O)CC[C@H](NC(=O)CCCCCCCCCCCCCCCCCCC(=O)O)C(=O)O)NC(=O)[C@H](CCCN)NC(=O)[C@H](CC(=O)O)NC(=O)[C@H](CC(C)C)NC(=O)[C@](C)(CC(C)C)NC(=O)[C@@H](NC(=O)[C@H](CO)NC(=O)[C@H](Cc1ccc(O)cc1)NC(=O)[C@H](CC(=O)O)NC(=O)[C@H](CO)NC(=O)[C@@H](NC(=O)[C@H](Cc1ccccc1)NC(=O)[C@@H](NC(=O)CNC(=O)[C@H](CCC(=O)O)NC(=O)C(C)(C)NC(=O)[C@H](N)Cc1ccc(O)cc1)[C@@H](C)O)[C@@H](C)O)[C@@H](C)CC)C(C)C)C(=O)N[C@@H](C)C(=O)NCC(=O)NCC(=O)N1CCC[C@H]1C(=O)N[C@@H](CO)C(=O)N[C@@H](CO)C(=O)NCC(=O)N[C@@H](C)C(=O)N1CCC[C@H]1C(=O)N1CCC[C@H]1C(=O)N1CCC[C@H]1C(=O)N[C@@H](CO)C(N)=O` [Example 358] (H-[dY][Aib]EGTFTSDYSI[αMeL]LD[Orn]K([AEEA-AEEA-γGlu-C20 diacid])AQ[Aib]AFVEYLIAGGPSSGAPPPS-NH2; N-terminus assumed), the EC50 in assay [1] came out at 0.117 nM; on human GLP-1R [2], 0.414 nM; in assay [3], 0.183 nM; at human GLP-1R [5], 0.00938 µM. Further, the figures for the Ki on human GIP receptor, at human GLP-1R [4] and at human Gcg receptor were 0.0636 nM, 1.37 nM and 915 nM, respectively. The “hGLP1R B-Arrestin2 % Top” value at human GLP-1R [5] is given as 21.4%.
As to `CC[C@H](C)[C@H](NC(=O)[C@H](CC(C)C)NC(=O)[C@H](Cc1ccc(O)cc1)NC(=O)[C@H](CCC(=O)O)NC(=O)[C@@H](NC(=O)[C@H](Cc1ccccc1)NC(=O)[C@H](CCC(=O)O)NC(=O)C(C)(C)NC(=O)[C@H](CCC(N)=O)NC(=O)[C@H](C)NC(=O)[C@H](CCCCNC(=O)COCCOCCNC(=O)COCCOCCNC(=O)CC[C@H](NC(=O)CCCCCCCCCCCCCCCCCCC(=O)O)C(=O)O)NC(=O)[C@H](CCCN)NC(=O)[C@H](CC(=O)O)NC(=O)[C@H](CC(C)C)NC(=O)[C@](C)(CC(C)C)NC(=O)[C@@H](NC(=O)[C@H](CO)NC(=O)[C@H](Cc1ccc(O)cc1)NC(=O)[C@H](CC(=O)O)NC(=O)[C@H](CO)NC(=O)[C@@H](NC(=O)[C@H](Cc1ccccc1)NC(=O)[C@@H](NC(=O)CNC(=O)[C@H](CCC(=O)O)NC(=O)C(C)(C)NC(=O)[C@H](N)Cc1ccc(O)cc1)[C@@H](C)O)[C@@H](C)O)[C@@H](C)CC)C(C)C)C(=O)N[C@@H](C)C(=O)NCC(=O)NCC(=O)N1CCC[C@H]1C(=O)N[C@@H](CO)C(=O)N[C@@H](CO)C(=O)NCC(=O)N[C@@H](C)C(=O)N1CCC[C@H]1C(=O)N1CCC[C@H]1C(=O)N1CCC[C@H]1C(=O)N[C@@H](CO)C(N)=O` [Example 359] (H-[dY][Aib]EGTFTSDYSI[αMeL]LD[Orn]K([AEEA-AEEA-γGlu-C20 diacid])AQ[Aib]EFVEYLIAGGPSSGAPPPS-NH2), the EC50 is 0.131 nM in assay [1], 0.496 nM on human GLP-1R [2], 0.172 nM in assay [3] and 0.0841 µM at human GLP-1R [5]. Also, the results for the Ki at human GIP receptor, on human GLP-1R [4] and on human Gcg receptor were 0.0874 nM, 2.59 nM and greater than 982 nM, respectively. At human GLP-1R [5], the “hGLP1R B-Arrestin2 % Top” value is reported as 28.4%.

The term EC50 denotes the concentration giving half of the maximal effect. As a reminder, the Ki is a dissociation constant, usually derived from enzyme kinetics or from competition with a known ligand.
